Assay results from patent publication US20190290673A1, “COMPOSITIONS AND METHODS FOR THE TREATMENT OF HBV INFECTION” (priority 2016, published 2019).

Tests used:
[1] = Whole body weight change in transgenic HBV mice; format: in vivo; conditions: per os, qd x 14 d, dosage 'high'; relative to vehicle values
Description: (§1) The goal of this study was to evaluate the efficacy of exemplary compounds for the treatment of HBV infection in transgenic mice. Homozygous […] transgenic HBV mice (21.6±2.8 g) originally obtained from the laboratory of Dr. Frank Chisari (Scripps Research Institute, LaJolla, Calif.) and derived from founder 1.3.32 were used in this study. Female and male HBV transgenic mice were block-randomized to the treatment groups (Table 1). Compounds of Formula (Ie) and Formula (If) were administered at 0.1 mL/30-gram mouse by oral gavage. Adefovir dipivoxil (ADV) was prepared as a solution of 2 mg/mL in 0.025 M sodium citrate, wherein 0.1 mL was administered by oral gavage (per os, p.o.) per 30 g mouse for a dosage of […].
(§2) Treatment was initiated at day 1. After the last treatment on day 14, necropsy was performed to obtain tissues to assay liver HBV DNA and sera for HBV antigens HBeAg and HBsAg. Weights were obtained on days −1, 1 (day of treatment initiation), 3, 7, and 14. Data were analyzed by one-way analysis of variance. Two animals died due to oral gavage treatment at day 7, one in group 1 and another in group 3. FIGS. 2A-2B show the effect of Formula (Ie) and Formula (If) on liver HBV DNA levels using Southern blot hybridization (FIG. 2A) and semi-quantitative PCR (FIG. 2B) as compared to vehicle and ADV.

HBV = experiment: Efficacy for treatment of HBV infection in transgenic HBV mice (liver HBV DNA, serum HBeAg/HBsAg); format: in vivo; conditions: per os, qd x 14 d, dosage 'high'; for liver HBV DNA levels: Southern blot hybridization and semi-quantitative PCR, compared to vehicle and ADV; for serum levels of HBeAg / serum levels of HBsAg: relative to vehicle values
Description: as §1, §2

Compound: CO[C@H]1C(O[P@](=O)(OC[C@H]2O[C@@H](n3cnc4c(N)ncnc43)CC2O)SCOC(=O)OC(C)C)[C@@H](CO)O[C@H]1n1ccc(=O)[nH]c1=O (some centres unmarked) [Formula (Ie)]
- whole body weight change [1]: Neither Formula (Ie) or Formula (If) had an effect
- liver HBV DNA levels (HBV): lowered HBV DNA levels in the liver
- serum levels of HBeAg (HBV): Neither Formula (Ie) or Formula (If) had an effect
- serum levels of HBsAg (HBV): Neither Formula (Ie) or Formula (If) had an effect

Compound: CO[C@H]1C(O[P@@](=O)(OC[C@H]2O[C@@H](n3cnc4c(N)ncnc43)CC2O)SCOC(=O)OC(C)C)[C@@H](CO)O[C@H]1n1ccc(=O)[nH]c1=O (some centres unmarked) [Formula (If)]
- whole body weight change [1]: Neither Formula (Ie) or Formula (If) had an effect
- liver HBV DNA levels (HBV): lowered HBV DNA levels in the liver
- serum levels of HBeAg (HBV): Neither Formula (Ie) or Formula (If) had an effect
- serum levels of HBsAg (HBV): Neither Formula (Ie) or Formula (If) had an effect
